Assay results as given in PubChem BioAssay AID248 (DTP/NCI, 2004).
Several values for one entry are separate records, joined by “and”; a condition that tells them apart may be missing. Equal entries are not always repeated. Inconclusive results and toxic doses are left out. No stated cut-off is given here; in the data, active means T/C of 150% or more; inactive means T/C below 125%.

System: L1210 leukemia ip in BDF1 mice, survival T/C
Experiment: NCI In Vivo Anticancer Drug Screen. Data for tumor model L1210 Leukemia (intraperitoneal) in B6D2F1 (BDF1) mice
Settings: endpoint: mean survival time, higher = longer survival
Summary of the method: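 Transplanted-tumor mice were given test agent; controls received vehicle only. Survival readings from the two groups were divided (treated over control).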

[1] = dose: 50.0 mg/kg/injection, schedule: Q04DX002 (ip), vehicle: Klucel (hydroxypropylcellulose) (HPC)
[2] = dose: 100.0 mg/kg/injection, schedule: Q04DX002 (ip), vehicle: Klucel (hydroxypropylcellulose) (HPC)
[3] = dose: 200.0 mg/kg/injection, schedule: Q04DX002 (ip), vehicle: Klucel (hydroxypropylcellulose) (HPC)
[4] = dose: 400.0 mg/kg/injection, schedule: Q04DX002 (ip), vehicle: Klucel (hydroxypropylcellulose) (HPC)
[5] = dose: 100.0 mg/kg/injection, schedule: Q01DX009 (ip), vehicle: Klucel (hydroxypropylcellulose) (HPC)
[6] = dose: 100.0 mg/kg/injection, schedule: Q04DX003 (ip), vehicle: Klucel (hydroxypropylcellulose) (HPC)
[7] = dose: 200.0 mg/kg/injection, schedule: Q01DX009 (ip), vehicle: Klucel (hydroxypropylcellulose) (HPC)
[8] = dose: 200.0 mg/kg/injection, schedule: Q04DX003 (ip), vehicle: Klucel (hydroxypropylcellulose) (HPC)
[9] = dose: 400.0 mg/kg/injection, schedule: Q01DX009 (ip), vehicle: Klucel (hydroxypropylcellulose) (HPC)
[10] = dose: 400.0 mg/kg/injection, schedule: Q04DX003 (ip), vehicle: Klucel (hydroxypropylcellulose) (HPC)
[11] = dose: 50.0 mg/kg/injection, schedule: Q04DX003 (ip), vehicle: Klucel (hydroxypropylcellulose) (HPC)
[12] = dose: 100.0 mg/kg/injection, schedule: Q04DX003 (ip), vehicle: saline
[13] = dose: 200.0 mg/kg/injection, schedule: Q04DX003 (ip), vehicle: saline
[14] = dose: 400.0 mg/kg/injection, schedule: Q04DX003 (ip), vehicle: saline
[15] = dose: 100.0 mg/kg/injection, schedule: Q01DX001 (ip), vehicle: saline
[16] = dose: 200.0 mg/kg/injection, schedule: Q01DX001 (ip), vehicle: saline
[17] = dose: 400.0 mg/kg/injection, schedule: Q01DX001 (ip), vehicle: saline
[18] = dose: 100.0 mg/kg/injection, schedule: Q01DX001 (ip), vehicle: carboxymethylcellulose (CMC)
[19] = dose: 200.0 mg/kg/injection, schedule: Q01DX001 (ip), vehicle: carboxymethylcellulose (CMC)
[20] = dose: 400.0 mg/kg/injection, schedule: Q01DX001 (ip), vehicle: carboxymethylcellulose (CMC)

Measured: T/C

CC(=O)NC(C)c1ccccc1 (configuration not stated)
inactive: [1] 108 % of control | dose: 75.0 mg/kg/injection, schedule: Q01DX009 (ip), vehicle: Klucel (hydroxypropylcellulose) (HPC) 96 % of control | [2] 108 % of control | dose: 150.0 mg/kg/injection, schedule: Q01DX009 (ip), vehicle: Klucel (hydroxypropylcellulose) (HPC) 89 % of control | [3] 108 % of control | dose: 300.0 mg/kg/injection, schedule: Q01DX009 (ip), vehicle: Klucel (hydroxypropylcellulose) (HPC) 100 % of control | [4] 111 % of control

CC(C)(C)OOC(=O)CCCl
inactive: dose: 100.0 mg/kg/injection, schedule: Q04DX002 (ip), vehicle: saline with Tween-80 93 % of control | dose: 200.0 mg/kg/injection, schedule: Q04DX002 (ip), vehicle: saline with Tween-80 101 % of control | dose: 400.0 mg/kg/injection, schedule: Q04DX002 (ip), vehicle: saline with Tween-80 101 % of control

Nc1ccc(S(=O)(=O)Nc2cccc3ccccc23)cc1
inactive: [5] 100 % of control | [6] 90 % of control | [7] 99 % of control | [8] 92 % of control | [9] 101 % of control | [10] 95 % of control

O=C(OC(=O)c1cccc(-c2ccccc2)c1)c1cccc(-c2ccccc2)c1
inactive: [6] 104 % of control | [8] 101 % of control | [10] 96 % of control

CSc1ncc(CO)c(Nc2ccccc2Cl)n1
inactive: [6] 103 % of control | [8] 103 % of control | [10] 95 % of control

OC(/C=C/C(O)c1ccccc1)c1ccccc1 (configuration not stated)
inactive: dose: 12.5 mg/kg/injection, schedule: Q01DX009 (ip), vehicle: Klucel (hydroxypropylcellulose) (HPC) 97 % of control | dose: 12.5 mg/kg/injection, schedule: Q04DX003 (ip), vehicle: Klucel (hydroxypropylcellulose) (HPC) 95 % of control | dose: 25.0 mg/kg/injection, schedule: Q01DX009 (ip), vehicle: Klucel (hydroxypropylcellulose) (HPC) 98 % of control | dose: 25.0 mg/kg/injection, schedule: Q04DX003 (ip), vehicle: Klucel (hydroxypropylcellulose) (HPC) 100 % of control | dose: 50.0 mg/kg/injection, schedule: Q01DX009 (ip), vehicle: Klucel (hydroxypropylcellulose) (HPC) 98 % of control | [11] 94 % of control

Cc1ccc(S(=O)(=O)NC(=O)NCCS)cc1
inactive: [12] 100 % of control | [13] 102 % of control | [14] 96 % of control

O=C(O)CCC(=O)c1ccc2c3c1CCCC3CC2 (configuration not stated)
inactive: [2] 107 % of control | [3] 101 % of control | [4] 93 % of control

Fc1c(F)c(F)[c]([Hg][c]2c(F)c(F)c(F)c(F)c2F)c(F)c1F
inactive: dose: 3.13 mg/kg/injection, schedule: Q04DX002 (ip), vehicle: saline with Tween-80 107 % of control | dose: 6.25 mg/kg/injection, schedule: Q04DX002 (ip), vehicle: saline with Tween-80 93 % of control | dose: 12.5 mg/kg/injection, schedule: Q04DX002 (ip), vehicle: saline with Tween-80 87 % of control | dose: 25.0 mg/kg/injection, schedule: Q04DX002 (ip), vehicle: saline with Tween-80 97 % of control

CN1CCCCC1CCN1c2ccccc2Sc2ccc(Br)cc21 (configuration not stated)
inactive: dose: 3.12 mg/kg/injection, schedule: Q01DX009 (ip), vehicle: saline 105 % of control | dose: 6.25 mg/kg/injection, schedule: Q01DX009 (ip), vehicle: saline 100 % of control | dose: 12.5 mg/kg/injection, schedule: Q01DX009 (ip), vehicle: saline 101 % of control

O=C1NC(=O)C(CCCCCl)N1 (configuration not stated)
inactive: [15] 91 % of control | [16] 87 % of control | [17] 94 % of control

CCOC(=O)NC(NC(=O)OCC)C(NC(=O)OCC)NC(=O)OCC
inactive: [18] 87 % of control | [19] 91 % of control | [20] 91 % of control

CC(=O)c1cccc(NC(=O)c2ccc(C(=O)Nc3cccc(C(C)=O)c3)cc2)c1
inactive: dose: 100.0 mg/kg/injection, schedule: Q01DX001 (ip), vehicle: other 104 % of control | dose: 200.0 mg/kg/injection, schedule: Q01DX001 (ip), vehicle: other 102 % of control | dose: 400.0 mg/kg/injection, schedule: Q01DX001 (ip), vehicle: other 89 % of control

Cc1ccc(N=C(c2ccccc2)c2ccc([N+](=O)[O-])cc2)cc1
inactive: [5] 98 % of control | [6] 105 % of control | [7] 101 % of control | [8] 93 % of control | [9] 103 % of control | [10] 102 % of control

Nc1nc(N)nc(-c2ccc(NC(=O)c3ccccc3[N+](=O)[O-])cc2)n1
inactive: [11] 100 % of control | dose: 100.0 mg/kg/injection, schedule: Q01DX001 (ip), vehicle: Klucel (hydroxypropylcellulose) (HPC) 97 % of control | [6] 106 % of control | dose: 200.0 mg/kg/injection, schedule: Q01DX001 (ip), vehicle: Klucel (hydroxypropylcellulose) (HPC) 95 % of control | [8] 103 % of control

O=C=Nc1cccc(S(=O)(=O)F)c1
inactive: dose: 50.0 mg/kg/injection, schedule: Q01DX001 (ip), vehicle: carboxymethylcellulose (CMC) 105 % of control | [18] 103 % of control | [19] 105 % of control | [20] 97 % of control

c1ccc2c(c1)CC(=[N+]1CCCCC1)Cc1ccccc1-2
inactive: dose: 100.0 mg/kg/injection, schedule: Q01DX009 (ip), vehicle: saline 92 % of control | [12] 103 % of control | dose: 200.0 mg/kg/injection, schedule: Q01DX009 (ip), vehicle: saline 92 % of control | [13] 89 % of control | [14] 87 % of control

Cc1cc(N(CCCCl)CCCCl)ccc1C=Nc1cccc(Cl)c1
inactive: [6] 101 % of control | [8] 101 % of control | [10] 96 % of control

O=C(CI)NCc1cn(C2CC(O)C(CO)O2)c(=O)[nH]c1=O (configuration not stated)
inactive: dose: 25.0 mg/kg/injection, schedule: Q01DX005 (ip), vehicle: water 105 % of control | dose: 50.0 mg/kg/injection, schedule: Q01DX005 (ip), vehicle: water 116 % of control | dose: 100.0 mg/kg/injection, schedule: Q01DX005 (ip), vehicle: water 116 % of control

Cc1nc2c(O)ccc(O)c2nc1C
inactive: dose: 3.12 mg/kg/injection, schedule: Q04DX003 (ip), vehicle: saline with Tween-80 100 % of control | dose: 6.25 mg/kg/injection, schedule: Q04DX003 (ip), vehicle: saline with Tween-80 96 % of control | dose: 12.5 mg/kg/injection, schedule: Q01DX009 (ip), vehicle: saline with Tween-80 94 % of control | dose: 12.5 mg/kg/injection, schedule: Q04DX003 (ip), vehicle: saline with Tween-80 100 % of control | dose: 25.0 mg/kg/injection, schedule: Q01DX009 (ip), vehicle: saline with Tween-80 96 % of control | dose: 50.0 mg/kg/injection, schedule: Q01DX009 (ip), vehicle: saline with Tween-80 94 % of control

Nc1ccccc1SC1CC(=O)N(c2ccc(I)cc2)C1=O (configuration not stated)
inactive: dose: 25.0 mg/kg/injection, schedule: Q04DX003 (ip), vehicle: other 88 % of control | dose: 50.0 mg/kg/injection, schedule: Q04DX003 (ip), vehicle: other 91 % of control | dose: 100.0 mg/kg/injection, schedule: Q01DX009 (ip), vehicle: other 94 % of control | dose: 100.0 mg/kg/injection, schedule: Q04DX003 (ip), vehicle: other 93 % of control | dose: 200.0 mg/kg/injection, schedule: Q01DX009 (ip), vehicle: other 102 % of control | [13] 88 % of control | dose: 400.0 mg/kg/injection, schedule: Q01DX009 (ip), vehicle: other 93 % of control | [14] 86 % of control

CN(C)C(=S)S/C=C\C(=O)O
inactive: dose: 25.0 mg/kg/injection, schedule: Q04DX002 (ip), vehicle: Klucel (hydroxypropylcellulose) (HPC) 90 % of control | [1] 90 % of control | [5] 112 % of control | [2] 94 % of control | [7] 89 % of control | [3] 93 % of control and 97 % of control | [9] 99 % of control | [4] 109 % of control

Nc1ccc(/C=C\C2(CCl)OCCO2)cc1
inactive: dose: 50.0 mg/kg/injection, schedule: Q01DX001 (ip), vehicle: saline 100 % of control | [15] 97 % of control | [16] 103 % of control | [17] 94 % of control
